Measured values published in paper PMC5458179, “Oxidative DNA double strand breaks and autophagy in the antitumor effect of sterically hindered platinum(II) complexes in NSCLCs” (Oncotarget, 2017).

Columns and labels:
p-XRCC1 = test: Immunostaining of SSB repair protein; assay type: cell-based, human; conditions: A549, 10 μM, 24 h
Description: (§1) The serine 139-phosphorylated form of chromatin-associated histone H2AX, namely γ-H2AX, is a key marker of cellular response to DDR, particularly DSBs. […] Obviously, pre-treatment of NAC could considerably alleviate the DDR triggered by complex 3 (Figure 5B). Therefore, we came to a conclusion that complex 3 caused DDR especially DSBs in A549 cells, which might happen after the increased level of intracellular ROS. In order to reveal the mechanisms underlying the enhanced DNA damage, complex 3 was studied to learn whether it could reduce the activation of DNA repair response including the co-localization of DSB repair protein MDC1/Aprataxin within nucleus. […] In order to reveal the mechanisms underlying DNA damage, complex 3 was studied to detect whether it could suppress the activation of DNA single strand break repair via the phosphorylation of SSB repair mediator/adaptor proteins XRCC1 within nucleus.
(§2) For assessment of DSBs repair kinetics we detected the total nuclear volume for an average of 50–60 nuclei per time points and cell type. Briefly, A549 cells were grown to confluence in 35 mm petri-dishes with 0.17 mm glass bottom. […] Non-specific binding was blocked by incubation with 5% FCS/PBS/0.1% Triton X-100 for 1 h at RT. […] Numbers of γH2AX foci were counted in 50–60 nuclei and plotted over time as previously described.

γ-H2AX = test: Nuclear γH2AX foci analysis; assay type: cell-based, human; conditions: A549, 8 h and 12 h
Description: as §1, §2

NCI-H1299 cancer cells = test: Intracellular ATP production; assay type: cell-based, human; conditions: NCI-H1299, 10 μM, 12 h
Description: (§3) Since ATP production is a significant consequence attributed to the dysfunction of mitochondrial energy production, we measured intracellular ATP levels after complex 3 treatment.
(§4) The ATP production assay kit (Haimen, Jiangsu, China) was used to measure intracellular ATP level according to the manufacturer's instructions. […] Detection was performed using the luminometer Orion II (Berthold DS, Bleichstr, Pforzheim, Germany).

A549 cancer cells = test: Intracellular ATP production; assay type: cell-based, human; conditions: A549, 10 μM, 12 h
Description: as §3, §4

SGC-7901 = test: MTT cytotoxicity assay; assay type: cell-based, human; conditions: 48 h drug exposure
Description: (§5) The results reveal that the steric hindrance plays a significant role in the cytotoxicity of complex 3.
(§6) Human cancer cell lines HepG2, SGC-7901, HCT-116, A549, NCI-H1299 and MCF-7 as well as normal liver cell line L02 were purchased from the Cell Bank of Shanghai Institute of Cell Biology. Among them, MCF-7, HepG2 cells were cultured at 37 °C in 5% CO2 with DMEM supplemented with 10% fetal bovine serum (FBS) (Hyclone, Lifescience, USA) and 1% penicillin/streptomycin (Beyotime, Nantong, China), while HCT-116, SGC-7901, A549, NCI-H1299 and L02 cells were cultured at 37 °C in 5% CO2 with RPMI-1640 supplemented with 10% FBS and 1% penicillin/streptomycin. Cells were passed every 2 days and restarted from frozen stocks upon reaching pass number 20.
(§7) In vitro cytotoxicity of the platinum compounds against human hepatocellular carcinoma (HepG-2), gastric carcinoma (SGC-7901), non-small-cell lung cancer (A549), and colorectal cancer (HCT-116) cell lines were measured by the MTT assays. Briefly, the cells were seeded in 96-well cultured plates at a density of 5000 cells/well. After overnight incubation (16 h), the cells were treated with the platinum complexes. After 48 h of incubation, 10 μL of a freshly diluted 3-(4,5-dimethyl-2-thiazolyl)-2,5-diphenyl-2H-tetrazolium bromide (MTT) solution (5 mg/mL) were added to each well and the plates were incubated at 37 °C in a humidified 5% CO2 atmosphere for 4 h. At the end of the incubation period the medium was removed and the formazan product was dissolved in 150 μL of DMSO. The cell viability was evaluated by measurement of the absorbance at 490 nm, using an Absorbance Reader (BioRad). IC50 values (compound concentration that produces 50% of cell growth inhibition) were calculated from curves constructed by plotting cell survival inhibitory rate (%) versus drug concentration logarithm. All experiments were repeated in three times. The reading values were converted to the percentage of control (% cell survival). Cytotoxic effects were expressed as IC50 values.

HCT-116 = test: MTT cytotoxicity assay; assay type: cell-based, human; conditions: 48 h drug exposure
Description: as §5, §6, §7

HepG2 = test: MTT cytotoxicity assay; assay type: cell-based, human; conditions: 48 h drug exposure
Description: as §5, §6, §7

p-Akt = test: Western blot of PI3K/Akt/mTOR pathway; assay type: cell-based, human; conditions: A549, 10 μM, 24 h, relative to control
Description: (§8) The mammalian target of rapamycin (mTOR) kinase is used to regulate autophagy as controlled though oxidative stress, hypoxia and growth receptors. The phosphatidylinosital-3 kinase (PI3K)/Akt signaling pathway activates mTOR through phosphorylating and inactivating the tuberous sclerosis complex (TSC)1–TSC2 complex. Inhibition of mTOR results in activation of autophagy. […] At the same time, levels of the p-Akt protein decreased to 0.95-, 1.02-, and 0.39-folds, respectively (Figure 7B). […] As a results, the administration of complex 3 decreased levels of proteins in PI3K/Akt/mTOR signaling pathways.
(§9) Lysates were centrifuged at 12,000 g for 0.5 h at 4°C. The concentrations of total proteins were measured using the BCA assay method with Varioskan spectrofluorometer and spectrophotometer (Thermo, Waltham, MA) at 562 nm. Protein (20–100 μg) prepared from the indicated cells was loaded per lane and electrophoresed in 8% or 10% sodium dodecyl sulfate polyacrylamide gel electrophoresis (SDS-PAGE), and then transferred onto polyvinylidene difluoride (PVDF) Immobilon-P membrane (Bio-Rad, USA) using a transblot apparatus (Bio-Rad, USA). The membranes were blocked with 5% (w/v) non-fat milk at 0.5 h at 37°C, followed by overnight incubation at 4°C with primary antibodies diluted in PBST. After washing with PBST, the membranes were incubated for 1 h with an IRDye´800 conjugated secondary antibody diluted 1:20000 in PBST, and the labeled proteins were detected with an Odyssey Scanning System (Li-COR., Lincoln, Nebraska, USA).

p-mTOR = test: Western blot of PI3K/Akt/mTOR pathway; assay type: cell-based, human; conditions: A549, 10 μM, 24 h, relative to control
Description: as §8, §9

cancer cells = test: Analysis of SSB (alkaline elution assay); assay type: cell-based; conditions: 10 μM, 15, 30 and 60 min
Description: Thus, we further identified whether the increased ROS level serves as a cause of DDR. […] To investigate the extent of DNA damage induced by complex 3, we detected the numbers of normal SSB using an alkaline elution assay.
Then the cells were washed three times with PBSCMF (140 mM NaCl, 3 mM KCl, 8 mM Na2HPO4 and 1 mM KH2PO4). The numbers of SSBs were determined by an alkaline elution assay as previously described. The numbers of SSB in untreated cancer cells were subtracted in all cases.

Question: For CC(C)C[NH+]1[C@@H]2CCCC[C@H]2[NH+](CC(C)C)[Pt-2]12[O]C(=O)CC(=O)[O]2 (stereo partly drawn) [Complex 3], which “phosphorylation of XRCC1” value (p-XRCC1) is on record?
Answer: suppression of phosphorylation of XRCC1 compared with oxaliplatin

Question: What about the γ-H2AX (γ-H2AX) of the same compound?
Answer: obvious increases in γ-H2AX

Question: And the “ATP level, % of untreated cells” value (NCI-H1299 cancer cells)?
Answer: 31.89%

Question: What about the “ATP level, % of untreated cells” value (A549 cancer cells) of the same compound?
Answer: 19.95%

Question: And the IC50 (SGC-7901)?
Answer: 38.6 ± 2.49 µM

Question: And the IC50 (HCT-116)?
Answer: 38.6 ± 2.67 µM

Question: What about the IC50 (HepG2) of the same compound?
Answer: 52.9 ± 4.37 µM

Question: And the “levels of the p-Akt protein” value (p-Akt)?
Answer: 1.02 folds

Question: What about the “amounts of p-mTOR” value (p-mTOR) of the same compound?
Answer: 1.41 folds

Question: And the “numbers of SSBs” value (cancer cells)?
Answer: could effectively increase the numbers of SSBs

Question: With O=C1[O][Pt]2([NH][C@@H]3CCCC[C@H]3[NH]2)[O]C1=O [Oxaliplatin, oxaliplatin, reference compound] as the compound, how does the IC50 (SGC-7901) read?
Answer: 24.2 ± 0.35 µM

Question: And the IC50 (HCT-116)?
Answer: 19.1 ± 1.89 µM

Question: What about the IC50 (HepG2) of the same compound?
Answer: 16.6 ± 0.56 µM

Question: And the “levels of the p-Akt protein” value (p-Akt)?
Answer: 0.95 folds

Question: And the “amounts of p-mTOR” value (p-mTOR)?
Answer: 1.15 folds
